CSc1ncc(Br)c(C(=O)O)n1
melting point: 156 to 157 °C

CNC(=C[N+](=O)[O-])OC
melting point: 116 to 120 °C

CCCCOc1ccc(N)cc1[N+](=O)[O-]
melting point: 60 to 64 °C

FC(F)(F)C1(F)C(F)(F)C(F)(F)C(F)(F)C(F)(C(F)(F)F)C1(F)F (centres undefined)
melting point: -55 °C

NC(=S)N1CCCCC1
melting point: 127 to 129 °C

COc1cc2c(Cc3ccccc3)cncc2cc1O
melting point: 207 °C

CCOC(=O)c1ccc(NC(=O)C(F)(F)C(F)(F)C(F)(F)C(F)(F)C(F)(F)C(F)(F)C(F)(F)C(F)(F)F)cc1
melting point: 135 to 137 °C

Cc1c(C(=O)CBr)sc2ccc(Cl)cc12
melting point: 154 to 156 °C

O=C(NC(=C(NC(=O)c1ccccc1)c1ccccc1)c1ccccc1)c1ccccc1
melting point: 100 °C

N#Cc1cc(N)ccc1-n1cccc1
melting point: 135 to 136 °C

O=C(O)C(=O)c1ccc([N+](=O)[O-])cc1
melting point: 110 °C

N#CCCn1cc(C(F)(F)F)ccc1=O
melting point: 89 to 90 °C

CCCCCCCCCCCCCCCCCCOCC(O)CO (centres undefined)
melting point: 70.5 °C

O=C(NCC1CCCCN1)c1cc(OCC(F)(F)F)ccc1OCC(F)(F)F (centres undefined)
melting point: 146 °C

Cc1nn(-c2ccccc2)nc1CO
melting point: 75 to 76 °C

CN(C)c1cccc(N(C)C)c1C#N
melting point: 71 to 73 °C

NS(=O)(=O)c1ccc(S(=O)(=O)CCO)c(F)c1
melting point: 165 °C

O=[N+]([O-])c1ccc(C(Br)C(Br)c2cccc3ccccc23)c([N+](=O)[O-])c1 (centres undefined)
melting point: 161 °C

CCCCCCNC(=S)NCCCCCC
melting point: 39 to 41 °C

O=CC=Cn1ccnc1
melting point: 118 °C

O=C(O)c1cc([N+](=O)[O-])c(O)c([N+](=O)[O-])c1
melting point: 250 °C

CCOC(=O)c1c(SC)nn(C(=O)c2cccc([N+](=O)[O-])c2)c1N
melting point: 153 °C

COc1cc(C(=O)O)ccc1C
melting point: 159 °C

ClCc1nc2ccccc2[nH]1
melting point: 146 to 150 °C

O=C1OC(c2ccc([N+](=O)[O-])cc2)=NC1=Cc1ccccc1
melting point: 236 °C

Nc1cccc(Cl)n1
melting point: 71 °C

CCS(=O)(=O)c1ccc(F)cc1
melting point: 41 °C

O=Cc1cc(O)c(O)cc1O
melting point: 223 °C

COc1ccc(CNC2=CC(=O)c3ccccc3C2=O)cc1
melting point: 164 °C

COc1ccc(C#N)c2ccccc12
melting point: 102 °C

CN(C(=O)COc1nc2ccccc2s1)c1ccccc1
melting point: 135 °C

CC1(C)C(C=C(Cl)Cl)C1C(=O)OCc1c(F)c(F)cc(F)c1F (centres undefined)
melting point: 32 °C

Brc1ccc(Oc2ccccc2Br)cc1
melting point: < 20 °C

C/C(=N\Nc1ccc([N+](=O)[O-])cc1)c1nc2c(ccc3ccccc32)nc1C
melting point: 271 °C

CC(=O)C1(C)CCC2C3CCC4=CC(=O)CCC4=C3CCC21C (centres undefined)
melting point: 106 °C

C=C(C)CC1(CC)C(=O)NC(=S)NC1=O
melting point: 160 °C

CCOc1ccccc1OS(=O)(=O)NC(=O)Nc1nc(OC)cc(OC)n1
melting point: 150 °C

CSc1ccccc1C(=O)N(NC(=O)c1ccccc1)C(C)(C)C
melting point: 196 °C

CCC1=C(C)CN(C(=O)NCCc2ccc(S(=O)(=O)NC(=O)NC3CCC(C)CC3)cc2)C1=O (centres undefined)
melting point: 207 °C

O=C(C1CCCCC1)N1CC(=O)N2CCc3ccccc3C2C1 (centres undefined)
melting point: 136 °C

CCCOC(=O)CCCCC(=O)OCCC
melting point: -15.7 °C

CC(=O)/C(=N\Nc1ccc([N+](=O)[O-])cc1)C(=O)C(F)(F)F
melting point: 140 °C

Cc1cc(=O)n(-c2ccccc2)n1C
melting point: 114 °C

CCCCCCCCCCCCCC=CC(O)C(CO)NC(=O)CCCCCCCCCCCCCCCCC (centres undefined)
melting point: 99 to 101 °C

CCCCCCCCCCCCCCCCCCCCCCCCCCCCCC[Si](C)(C)Cl
melting point: 60 to 80 °C

O=C(Nc1ccc(N=Nc2ccc([N+]([O-])=Nc3ccc(NC(=O)c4ccccc4)cc3)cc2)cc1)c1ccccc1
melting point: 328 °C

CCc1ccnc(N)c1
melting point: 67 °C

c1ccc(P(CCCCCP(c2ccccc2)c2ccccc2)c2ccccc2)cc1
melting point: 47 °C

Clc1cc(Cl)c2nsnc2c1Cl
melting point: 122 °C

CC12CCC(O)CC1CCC1C2CCC2(C)C1CCC2(C)O (centres undefined)
melting point: 164 °C

C#CC1(O)CCC2(C)C(C1)CC1(OCCO1)C1C3CCC(=O)C3(C)CCC12 (centres undefined)
melting point: 308 °C

CCn1c(=O)n(CC)c(=O)n(CC)c1=O
melting point: 96.8 °C

CC(C)Cc1ccc(C(=O)C=Cc2cccc([N+](=O)[O-])c2)cc1
melting point: 104 to 107 °C

OCCc1ccccc1
melting point: -27 °C

O=[N+]([O-])c1cccc(C2OCCO2)c1
melting point: 54 °C

CC(=O)OCCOc1cc(OC(C)=O)c2c(=O)c(OC(C)=O)c(-c3ccc(OCCOC(C)=O)c(OCCOC(C)=O)c3)oc2c1
melting point: 96 to 97 °C

CCCCCCCCCCCCCCCCOC(C)=O
melting point: -18.5 °C

O=C1c2cccc(O)c2C(=O)c2cccc(O)c21
melting point: 280 °C

CCOC(=O)C(C(N)=S)=C1NN=C(c2ccc(Cl)cc2)O1
melting point: 174 to 177 °C

O=C(C1=NN(c2ccccc2)C2C(=O)N(c3ccc(F)cc3)C(=O)C12)c1ccccc1 (centres undefined)
melting point: 211 °C

CCOC(=O)C(CCc1ccccc1)NC(C)C(=O)N1CCCC1C(=O)O (centres undefined)
melting point: 144 °C

COc1cc(Cl)ccc1CO
melting point: 47 °C

CSc1cc(-c2ccc(F)cc2)n[nH]1
melting point: 101 to 103 °C

O=C(O)Cc1noc2ccccc12
melting point: 123 to 125 °C

COP(=O)(OC)SCn1c(=O)oc2cc(Cl)cnc21
melting point: 89 °C

O=C(O)c1cccc(I)c1C(=O)O
melting point: 178 to 182 °C

Cn1nccc1N
melting point: 73 to 76 °C

NC(CCN(Cc1ccco1)S(=O)(=O)c1ccc(Cl)cc1)=NO
melting point: 115 to 117 °C

Cn1c(C(C#N)c2ncccc2[N+](=O)[O-])nc2ccccc21 (centres undefined)
melting point: 214 °C

Cc1ccc(-n2c(-c3cccnc3)noc2=S)cc1
melting point: 159 °C

O=C(Cl)c1ccc(Oc2cc(Cl)cc(Cl)c2)o1
melting point: 60 to 62 °C

CN(C)S(F)(F)F
melting point: -78.7 °C

Clc1ccc(-c2cc3ccccc3[nH]2)cc1
melting point: 206 °C

CCOC(=O)c1cc2ccccc2cc1O
melting point: 80 to 81 °C

O=C(O)c1c(C(F)(F)F)ccnc1Cl
melting point: 159 °C

CC(C)COC(N)=O
melting point: 67 °C

COC(=O)c1ccc(N2CCCCC2)nc1
melting point: 70 to 72 °C

O=C(O)C1(c2ccc(Cl)cc2)CCCC1
melting point: 160 to 164 °C

C[Si](C)(C)CC(=O)O
melting point: 41 °C

N#Cc1ccc(Cn2ccnc2)cc1
melting point: 103 to 104 °C

Cc1ccc(S(=O)(=O)OC(C(F)(F)F)C(F)(F)F)cc1
melting point: 39 to 40 °C

Cc1ccc(C(=O)C(C)CN2CCCCC2)cc1 (centres undefined)
melting point: 176 °C

CCCCN(C)C(=O)Nc1ccc(Cl)c(Cl)c1
melting point: 102 °C

CCCCCCN(CCCCCC)C1=NC(=Cc2ccccc2)C(=O)N1c1ccccc1
melting point: 76 °C

COc1ccc(C=Nc2ccc(C3=NNC(=O)CC3)cc2)cc1
melting point: 213 to 215 °C

CC(=O)n1c2ccccc2c2cc3ccccc3nc21
melting point: 187 °C

O=C(c1ccc(C(=O)C(Cl)Cl)cc1)C(Cl)Cl
melting point: 143 °C

Cc1nc2cc(Cl)ccc2s1
melting point: 69 °C

Nc1cc(-c2ccc(Cl)cc2)nc(N)n1
melting point: 158 to 161 °C

CCCCN(CCCC)C(=O)COC(=O)c1ccccc1
melting point: 25 °C

CC(=O)C1=CCC2(C)C(CCC3C4CCC(=O)C4(C)CCC32)C1 (centres undefined)
melting point: 152 to 153 °C

Cc1ccc(C(=O)C2=NOC3C(=O)N(c4cc(Cl)ccc4Cl)C(=O)C23)cc1 (centres undefined)
melting point: 191 °C

O=C(O)c1cc(Br)c(O)c(Br)c1
melting point: 271 to 274 °C

NN1C(=O)c2cccc3cccc(c23)C1=O
melting point: 265 to 266 °C

O=C1CSC(c2cccs2)C1 (centres undefined)
melting point: 55 to 58 °C

CCCCCCC(=O)OC(=O)CCCCCC
melting point: -12 °C

Cc1c(N/N=C(/C(=O)c2cccc3ccccc23)S(=O)(=O)c2ccccc2)c(=O)n(-c2ccccc2)n1C
melting point: 110 °C

COc1ccc2cc([N+](=O)[O-])ccc2c1
melting point: 134 °C

CN[C@@H](Cc1c[nH]c2ccccc12)C(=O)O
melting point: 295 °C

CC1CCCC(C)C1C (centres undefined)
melting point: -66.9 °C

O=C(c1cccc2ccccc12)C(O)c1ccccc1 (centres undefined)
melting point: 105 to 106 °C

O=C1OC(c2ccccc2)=NC1=Cc1ccc(Cl)cc1Cl
melting point: 180 °C

Nc1ccc(C(c2ccccc2)(c2ccccc2)c2ccccc2)cc1
melting point: 258 °C

FC(F)(F)c1ccc2cc[nH]c2c1
melting point: 103 °C

CC(C)(C)c1ccc(-c2nnc(S)n2-c2cccc(C(F)(F)F)c2)cc1
melting point: 256 to 260 °C

O=C1CCC2(O)C3Cc4ccc(O)c5c4C2(CCN3CC2CC2)C1O5 (centres undefined)
melting point: 169 °C

O=C(Nc1ccc([N+](=O)[O-])cc1)C(F)(F)C(F)(F)C(F)(F)C(F)(F)C(F)(F)C(F)(F)C(F)(F)C(F)(F)F
melting point: 119 °C

CCOc1ccc(-c2nnc3sc(-c4ccc(Cl)cc4)nn23)cc1
melting point: 113 °C

O=C(O)C(O)C(O)C(=O)Nc1ccc(Cl)cc1 (single isomer, unassigned; (+))
melting point: 193 to 195 °C

CC(=O)c1sccc1N
melting point: 86 to 88 °C

O=C1/C(=C\c2ccc(Cl)cc2)SC(=S)N1CN1CCCCC1
melting point: 122 °C

CCC(=Cc1ccccc1)[N+](=O)[O-]
melting point: 90.5 °C

O=C1OC(=O)c2cc(F)ccc21
melting point: 75 to 78 °C

CC(=O)c1cccnc1C(=O)OC(C)C
melting point: 40 °C

O=c1c2ccccc2cc2ccc3ccccc3n12
melting point: 125 °C

OCCCCC(O)CO (centres undefined)
melting point: 25 to 32 °C

CC(C)(C)N(NC(=O)c1ccccc1)C(=O)c1cccc(C(F)(F)F)c1
melting point: 204 °C

O=C(c1ccccc1)c1ccc(F)c(F)c1
melting point: 56 °C

CC(C)(C)OC(=O)N1CCN(C(=O)OCC2c3ccccc3-c3ccccc32)CC1C(=O)O (centres undefined)
melting point: 156 to 158 °C

— a melting point compilation (Tetko et al.)
